Assay [1] has as its target mutEGFR (D770_N771insSVD) (Homo sapiens (Human), UniProt P00533, INS770SVD). Description: biochemical. The conditions noted are these: mutEGFR (D770_N771 insSVD) at 2 mM ATP IC50, 2 mM ATP.
In the next assay the target is human Bub1 (Homo sapiens (Human), UniProt O43683). Briefly: Bub1 high ATP kinase assay (TR-FRET). It counts as biochemical. From the text: Bub1-inhibitory activity of compounds of the present invention at a high ATP concentration was quantified employing the Bub1 TR-FRET high ATP kinase assay as described in the following paragraphs.
N-terminally His6-tagged recombinant catalytic domain of human Bub1 (amino acids 704-1085), expressed in insect cells (Hi5) and purified by Ni-NTA affinity chromatography and subsequent size exclusion chromatography, was used as enzyme.

A further assay concerns Ba/F3-EGFR-insSVD. Briefly: Ba/F3 cell survival assay, EGFR-insSVD. The settings on record: Mus musculus, BaF3, 48 h, read-out: BA/F3 (insSVD) IC50, cell viability, Cell Titer-Glo, 48 h, with 10 ng/mL EGF, without IL-3. The class given is cell-based. The essentials:
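Ba/F3 cells stably expressing WT EGFR or EGFR-insSVD via retrovirus, grown without IL-3 on 10 ng/mL EGF, plated at 4000 cells/well. Compound exposure 48 h at 37 °C; viability read by CellTiter-Glo luminescence.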
(In general: In ATP-based viability assays light output follows the ATP content of the culture.)

Another assay deals with Ba/F3-EGFR-WT. Description: Ba/F3 cell survival assay, WT EGFR. The class given is cell-based. The settings on record: Mus musculus, BaF3, 48 h, read-out: BA/F3 (wild type) IC50, cell viability, Cell Titer-Glo, 48 h, with 10 ng/mL EGF, without IL-3.
Setting [2] is: read-out: Bub1 high ATP (2 mM) IC50, 2 mM ATP.

Read-outs that look alike come from different tables or passages of the source.

mutEGFR (D770_N771insSVD), sequence (P00533 other isoform, or with tags, fused parts or gaps ins SVD behind 770): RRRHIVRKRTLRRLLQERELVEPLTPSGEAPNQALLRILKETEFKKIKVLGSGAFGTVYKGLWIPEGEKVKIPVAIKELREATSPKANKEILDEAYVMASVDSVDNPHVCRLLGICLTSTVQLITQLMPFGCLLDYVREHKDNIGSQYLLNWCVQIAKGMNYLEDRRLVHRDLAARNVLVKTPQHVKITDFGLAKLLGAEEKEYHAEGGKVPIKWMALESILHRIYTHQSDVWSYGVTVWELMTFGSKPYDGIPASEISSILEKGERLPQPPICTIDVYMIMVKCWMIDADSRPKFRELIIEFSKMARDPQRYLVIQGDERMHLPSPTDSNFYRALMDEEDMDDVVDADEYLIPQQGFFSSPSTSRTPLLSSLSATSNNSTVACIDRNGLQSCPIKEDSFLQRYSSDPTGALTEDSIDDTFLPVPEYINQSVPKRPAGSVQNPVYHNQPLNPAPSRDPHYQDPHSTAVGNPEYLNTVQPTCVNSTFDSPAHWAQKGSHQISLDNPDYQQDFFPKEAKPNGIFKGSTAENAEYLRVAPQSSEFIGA
human Bub1, sequence (O43683 704-1085): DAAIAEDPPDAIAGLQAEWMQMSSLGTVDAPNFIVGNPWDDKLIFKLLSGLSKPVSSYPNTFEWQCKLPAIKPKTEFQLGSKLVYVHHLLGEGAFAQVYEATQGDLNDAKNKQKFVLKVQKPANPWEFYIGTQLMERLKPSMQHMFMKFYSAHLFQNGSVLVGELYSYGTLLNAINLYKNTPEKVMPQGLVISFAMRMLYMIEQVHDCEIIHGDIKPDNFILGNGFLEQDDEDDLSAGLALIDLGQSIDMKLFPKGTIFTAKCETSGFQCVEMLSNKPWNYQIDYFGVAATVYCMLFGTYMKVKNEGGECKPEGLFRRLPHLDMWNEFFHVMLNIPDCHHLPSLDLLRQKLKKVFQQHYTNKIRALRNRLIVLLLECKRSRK

In the case of `Cc1cccc(Nc2c(-c3ccncc3OCC3(C)CCO3)[nH]c3c2C(=O)NCC3)c1Cl` (racemic) [Example 55, 3-(2-chloro-3-methylanilino)-2-{3-[(2-methyloxetan-2-yl)methoxy]pyridin-4-yl}-1,5,6,7-tetrahydro-4H-pyrrolo[3,2-c]pyridin-4-one], the IC50 in assay [1] was found to be 0.138 nM; at human Bub1 (setting [2]) it was 15400 nM; with Ba/F3-EGFR-insSVD, 67.3 nM; with Ba/F3-EGFR-WT it was 593 nM.
On the same counts, the results for `COc1c(Cl)cc(F)cc1Nc1c(-c2ccncc2OCC2(C)CCO2)[nH]c2c1C(=O)NCC2` (racemic) [Example 68, 3-(3-chloro-5-fluoro-2-methoxyanilino)-2-(3-{[2-methyloxetan-2-yl]methoxy}pyridin-4-yl)-1,5,6,7-tetrahydro-4H-pyrrolo[3,2-c]pyridin-4-one] are 0.215 nM, above 20000 nM, 103 nM and 1260 nM.
`Cc1c(Cl)cccc1Nc1c(-c2ccncc2OCC2(C)CCO2)[nH]c2c1C(=O)NCC2` (racemic) [Example 80, 3-(3-chloro-2-methylanilino)-2-(3-{[2-methyloxetan-2-yl]methoxy}pyridin-4-yl)-1,5,6,7-tetrahydro-4H-pyrrolo[3,2-c]pyridin-4-one]: the IC50 in assay [1] worked out at 0.187 nM; on human Bub1 (setting [2]) it was 6640 nM; with Ba/F3-EGFR-insSVD, 35.2 nM; with Ba/F3-EGFR-WT it was 546 nM.
In the same order, the values of `Cc1c(F)cccc1Nc1c(-c2ccncc2OCC2(C)CCO2)[nH]c2c1C(=O)NCC2` (racemic) [Example 83, 3-(3-fluoro-2-methylanilino)-2-(3-{[2-methyloxetan-2-yl]methoxy}pyridin-4-yl)-1,5,6,7-tetrahydro-4H-pyrrolo[3,2-c]pyridin-4-one] are 0.246 nM, above 20000 nM, 41.9 nM and 986 nM.
For `Cc1c(Cl)cccc1Nc1c(-c2ccncc2OC[C@@H]2CCO2)[nH]c2c1C(=O)NCC2` [Example 8, 3-(3-chloro-2-methylanilino)-2-(3-{[(2S)-oxetan-2-yl]methoxy}pyridin-4-yl)-1,5,6,7-tetrahydro-4H-pyrrolo[3,2-c]pyridin-4-one], the IC50 turned out to be 7610 nM on human Bub1 (setting [2]), 12.5 nM in the assay with Ba/F3-EGFR-insSVD and 230 nM in the assay with Ba/F3-EGFR-WT.
Take `Cc1c(Cl)cccc1Nc1c(-c2ccncc2OC[C@H]2CCO2)[nH]c2c1C(=O)NCC2` [Example 9, 3-(3-chloro-2-methylanilino)-2-(3-{[(2R)-oxetan-2-yl]methoxy}pyridin-4-yl)-1,5,6,7-tetrahydro-4H-pyrrolo[3,2-c]pyridin-4-one]: the values for the IC50 on human Bub1 (setting [2]), in the assay with Ba/F3-EGFR-insSVD and with Ba/F3-EGFR-WT were 1570 nM, 269 nM and 1200 nM, respectively.
On the same counts, the results for `O=C1NCCc2[nH]c(-c3ccncc3OCC3COC3)c(Nc3cccc(Cl)c3OC(F)F)c21` [Example 17, 3-[3-chloro-2-(difluoromethoxy)anilino]-2-{3-[(oxetan-3-yl)methoxy]pyridin-4-yl}-1,5,6,7-tetrahydro-4H-pyrrolo[3,2-c]pyridin-4-one] are 7520 nM, 177 nM and 1740 nM.
In the same order, the values of `COc1c(F)cccc1Nc1c(-c2ccncc2OCC2COC2)[nH]c2c1C(=O)NCC2` [Example 18, 3-(3-fluoro-2-methoxyanilino)-2-{3-[(oxetan-3-yl)methoxy]pyridin-4-yl}-1,5,6,7-tetrahydro-4H-pyrrolo[3,2-c]pyridin-4-one] are 12100 nM, 80.1 nM and 819 nM.
On the same counts, the results for `CCC1(COc2cnccc2-c2[nH]c3c(c2Nc2cccc(Cl)c2OC)C(=O)NCC3)COC1` [Example 22, 3-(3-chloro-2-methoxyanilino)-2-{3-[(3-ethyloxetan-3-yl)methoxy]pyridin-4-yl}-1,5,6,7-tetrahydro-4H-pyrrolo[3,2-c]pyridin-4-one] are 3830 nM, 57.2 nM and 852 nM.
Consider `COc1c(Cl)cccc1Nc1c(-c2ccncc2OC[C@@H]2CCN2C)[nH]c2c1C(=O)NCC2` [Example 27, 3-(3-chloro-2-methoxyanilino)-2-(3-{[(2S)-1-methylazetidin-2-yl]methoxy}pyridin-4-yl)-1,5,6,7-tetrahydro-4H-pyrrolo[3,2-c]pyridin-4-one], for which the IC50 in assay [1] amounted to 0.445 nM; in the assay on Ba/F3-EGFR-insSVD, 36.5 nM; in the assay on Ba/F3-EGFR-WT it was 937 nM.
On the same counts, the results for `CCN1CC[C@H]1COc1cnccc1-c1[nH]c2c(c1Nc1cccc(Cl)c1OC)C(=O)NCC2` [Example 28, 3-(3-chloro-2-methoxyanilino)-2-(3-{[(2S)-1-ethylazetidin-2-yl]methoxy}pyridin-4-yl)-1,5,6,7-tetrahydro-4H-pyrrolo[3,2-c]pyridin-4-one] are 1.06 nM, 181 nM and 1780 nM.
On the same counts, the results for `COc1c(Cl)cccc1Nc1c(-c2ccncc2OC[C@@H]2CCN2CC(F)(F)F)[nH]c2c1C(=O)NCC2` [Example 29, 3-(3-chloro-2-methoxyanilino)-2-(3-{[(2S)-1-(2,2,2-trifluoroethyl)azetidin-2-yl]methoxy}pyridin-4-yl)-1,5,6,7-tetrahydro-4H-pyrrolo[3,2-c]pyridin-4-one] are 0.304 nM, 60.8 nM and 1040 nM.
As for `COc1c(Cl)cccc1Nc1c(-c2ccncc2OC[C@H]2CCN2CC(F)(F)F)[nH]c2c1C(=O)NCC2` [Example 30, 3-(3-chloro-2-methoxyanilino)-2-(3-{[(2R)-1-(2,2,2-trifluoroethyl)azetidin-2-yl]methoxy}pyridin-4-yl)-1,5,6,7-tetrahydro-4H-pyrrolo[3,2-c]pyridin-4-one], the IC50 is 0.346 nM in assay [1], 10.4 nM with Ba/F3-EGFR-insSVD and 402 nM in the assay on Ba/F3-EGFR-WT.
Take `COc1c(Cl)cccc1Nc1c(-c2ccncc2OCC2(C)CCN2C)[nH]c2c1C(=O)NCC2` (centres unmarked) [Example 31, 3-(3-chloro-2-methoxyanilino)-2-{3-[(1,2-dimethylazetidin-2-yl)methoxy]pyridin-4-yl}-1,5,6,7-tetrahydro-4H-pyrrolo[3,2-c]pyridin-4-one]: the IC50 on human Bub1 (setting [2]) worked out at 7540 nM; in the assay with Ba/F3-EGFR-insSVD it was 23.7 nM; in the assay on Ba/F3-EGFR-WT, 391 nM.
On the same counts, the results for `COc1c(Cl)cccc1Nc1c(-c2ccncc2OCC2(C)CCN2CC(F)(F)F)[nH]c2c1C(=O)NCC2` (centres unmarked) [Example 32, 3-(3-chloro-2-methoxyanilino)-2-(3-{[2-methyl-1-(2,2,2-trifluoroethyl)azetidin-2-yl]methoxy}pyridin-4-yl)-1,5,6,7-tetrahydro-4H-pyrrolo[3,2-c]pyridin-4-one] are above 20000 nM, 12.2 nM and 298 nM.
In the same order, the values of `COc1c(F)cccc1Nc1c(-c2ccncc2OCC2(F)COC2)[nH]c2c1C(=O)NCC2` [Example 61, 3-(3-fluoro-2-methoxyanilino)-2-{3-[(3-fluorooxetan-3-yl)methoxy]pyridin-4-yl}-1,5,6,7-tetrahydro-4H-pyrrolo[3,2-c]pyridin-4-one] are above 20000 nM, 445 nM and 3570 nM.
With `Cc1cccc(Nc2c(-c3ccncc3OCCC3CCO3)[nH]c3c2C(=O)NCC3)c1Cl` (centres unmarked) [Example 62, 3-(2-chloro-3-methylanilino)-2-{3-[2-(oxetan-2-yl)ethoxy]pyridin-4-yl}-1,5,6,7-tetrahydro-4H-pyrrolo[3,2-c]pyridin-4-one], the IC50 against human Bub1 (Bub1 high ATP (2 mM) IC50, 2 mM ATP) is above 5710 nM; on human Bub1 (setting [2]) it was 5250 nM; in the assay on Ba/F3-EGFR-insSVD, 42.1 nM; in the assay with Ba/F3-EGFR-WT, 3700 nM.
For `CCc1c(Cl)cccc1Nc1c(-c2ccncc2OCC2CCO2)[nH]c2c1C(=O)NCC2` (centres unmarked) [Example 77, 3-(3-chloro-2-ethylanilino)-2-(3-{[oxetan-2-yl]methoxy}pyridin-4-yl)-1,5,6,7-tetrahydro-4H-pyrrolo[3,2-c]pyridin-4-one], the results for the IC50 at human Bub1 (setting [2]), with Ba/F3-EGFR-insSVD and in the assay on Ba/F3-EGFR-WT were 1760 nM, 46.7 nM and 777 nM, respectively.
Regarding `COc1c(F)cccc1Nc1c(-c2ccncc2OC[C@H]2CCN2C)[nH]c2c1C(=O)NCC2` [Example 79, 3-(3-fluoro-2-methoxyanilino)-2-(3-{[(2R)-1-methylazetidin-2-yl]methoxy}pyridin-4-yl)-1,5,6,7-tetrahydro-4H-pyrrolo[3,2-c]pyridin-4-one], the IC50 in assay [1] amounted to 0.718 nM; in the assay with Ba/F3-EGFR-insSVD, 113 nM; in the assay on Ba/F3-EGFR-WT, 712 nM.
Consider `CCC1(COc2cnccc2-c2[nH]c3c(c2Nc2cccc(Cl)c2Cl)C(=O)NCC3)COC1` [Example 87, 3-(2,3-dichloroanilino)-2-{3-[(3-ethyloxetan-3-yl)methoxy]pyridin-4-yl}-1,5,6,7-tetrahydro-4H-pyrrolo[3,2-c]pyridin-4-one], for which the IC50 on human Bub1 (setting [2]) was above 5700 nM; with Ba/F3-EGFR-insSVD it was 119 nM; in the assay with Ba/F3-EGFR-WT, 813 nM.

Values taken from patent US20240307362A1 (priority 2019, published 2024).
